Results reported in patent US20090175845A1, “METHODS FOR IDENTIFYING COMPOUNDS THAT MODULATE PHB DOMAIN PROTEIN ACTIVITY AND COMPOSITIONS THEREOF” (THE TRUSTEES OF COLUMBIA UNIVERSITY IN THE CITY OF NEW YORK, priority 2005, published 2009).

Tests used:
MEC-2 = assay: Detergent-resistant membrane (DRM) fractionation by density gradient centrifugation; assay type: cell-based, C. elegans; settings: limited cholesterol depletion with MBCD, FIG. 1D
Protocol: (§1) Preparation of Detergent-Resistant Membrane Domains and Cholesterol Measurement—For preparation of low-density Triton® X-100—insoluble membrane domains (DRM; LDF) HEK 293T cells were homogenized by 20 strokes in a Dounce homogenizer in 1 ml of MBS buffer (250 mM NaCl, 5 mM EDTA, 10 mM Tris, pH 7.4, proteinase inhibitors) in the presence of 1% Triton® X-100 and centrifuged for ten minutes at 3,000×g at 4° C. The lysates were incubated for 45 minutes on ice in the presence of 1% Triton® X-100, adjusted to 45% sucrose and pipetted at the bottom of an ultracentrifuge tube. Samples were then overlaid with a sucrose step gradient (2 ml of 30% sucrose and 1 ml of 5% sucrose in MBS) as described previously {Huber, 2003 #205}. Gradients were centrifuged for 20 hours at 200,000×g at 4° C. in a swing-out rotor, and seven fractions ([…] each) were collected starting from the top and analyzed by SDS-PAGE. Cholesterol was measured using the Amplex® Red Cholesterol Assay Kit (Molecular Probes).
(§2) Cell Culture Studies. Most cell studies used HEK 293T cells that were grown in DMEM as described [Huber et al. (2001) J. Biol. Chem. 18:18]. Cholesterol-depleted cells were prepared by growing cells in DMEM with pravastatin (8 μM) for two days and then methyl-β-cyclodextrine (MBCD; 5 mM) for 30 minutes just before the experiment. […]

Podocin [1] = assay: Multimerization by velocity gradient centrifugation; assay type: cell-based, mouse; settings: limited cholesterol depletion of Podocin-expressing cells, FIG. 5B
Protocol: PHB protein multimerization was studied by velocity gradient centrifugation and blue native gel electrophoresis [Schagger et al. (1991) Anal. Biochem. 199: 223-31]. For preparation of Podocin multimeric complexes HEK293T cells were lysed in 1 ml of Mes-buffered saline (MBS) in the presence of 1% Triton® X-100 and centrifuged for 10 minutes at 1,000×g at 4° C. After centrifugation, the supernatant was collected and SDS was added at a final concentration of 0.1% and incubated for 20 minutes on ice. Thereafter, the lysate was cleared by centrifugation for 15 minutes at 100,000×g. Four milliliters of a discontinuous sucrose gradient (40-5%) was layered on top of a 60% sucrose cushion in a Beckman ultracentrifuge tube. One milliliter of the cell lysate was adjusted with 1 ml of MBS, added on top of this gradient and subjected for centrifugation for 16 hours at 180,000×g at 4° C. in a Beckman SW-41 rotor. After centrifugation 2 ml of the supernatant were discarded and 8 fractions (500 μl each) were collected starting from the top and analyzed by SDS-PAGE.
Previously it was shown that shown that Podocin homo-oligomerizes and forms high-molecular weight complexes by homophilic interactions that require the PHB-domain [Huber et al. (2003) Hum. Mol. Genet. 12:3397-405]. MEC-2 also homo-oligomerizes (infra) as do other PHB-domain proteins [Umlauf et al. (2006) J. Biol. Chem.]. […]

HeLa-Cx43 cells = assay: Ca2+-FLIPR assay, histamine-induced calcium influx; assay type: cell-based; settings: limited cholesterol depletion, FIG. 11D
Protocol: Ca^2+-FLIPR Assay—HeLa-Cx43 cells were loaded with […] FLUO-4/AM and 0.04% Pluronic F-127 (both from Molecular Probes) in HBS but with 20 mM HEPES and 2.5 mM probenecid as described previously (20). After loading, cells were washed twice with HBS by an automated plate washer (Denley Cellwash, Labsystems) and transferred to the FLIPR (Molecular Devices). The FLIPR integrates an argon laser excitation source, a 96-well pipettor, and a detection system utilizing a CCD imaging camera. […] of 3× histamine concentrations were delivered within 2 seconds simultaneously to all of the wells containing […] of HBS. Fluorescence emissions from the 96-wells were monitored simultaneously at an emission wavelength of 515 nm after excitation with 488 nm (F488). Fluorescence data were collected at 0.25 Hertz, 48 seconds before and 8 minutes after stimulation, and analyzed off-line. Histamine response amplitudes were determined from the fluorescence at 3.2 minutes (peak of calcium influx) of the solvent control-subtracted and base-line-corrected traces, and averaged over 3-4 wells of same transfectants, receiving the same stimulus. EC50 values and curves were derived from fitting the function f(x)=(a−d)/(1+(x/C)nH)+d to the data by non-linear regression with a=minimum, d=maximum, C=EC50, and nH=Hill coefficient. […]

Podocin [2] = target: T1, Podocin (Mus musculus, UniProt Q91X05); assay: Detergent-resistant membrane (DRM) fractionation by density gradient centrifugation; assay type: cell-based; settings: limited cholesterol depletion with MBCD; readdition of cholesterol, FIG. 1D
T1 construct: expressed in transfected cells; host or cells: HEK 293T
T1 sequence (Q91X05 1-385): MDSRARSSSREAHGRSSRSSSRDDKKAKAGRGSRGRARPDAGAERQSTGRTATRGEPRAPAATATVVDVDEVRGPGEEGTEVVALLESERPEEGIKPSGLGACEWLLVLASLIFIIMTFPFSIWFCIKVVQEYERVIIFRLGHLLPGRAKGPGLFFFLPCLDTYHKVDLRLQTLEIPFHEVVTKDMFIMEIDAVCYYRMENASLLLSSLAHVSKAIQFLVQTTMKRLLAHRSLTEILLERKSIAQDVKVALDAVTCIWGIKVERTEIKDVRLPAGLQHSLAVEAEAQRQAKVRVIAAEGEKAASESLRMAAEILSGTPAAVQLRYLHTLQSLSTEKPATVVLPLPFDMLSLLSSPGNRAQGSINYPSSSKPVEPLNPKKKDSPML
Protocol: as §1, §2

## methyl-β-cyclodextrin [MBCD]
MEC-2
  MEC-2 in DRM fractions: loss of Podocin and MEC-2 from the DRM fractions
Podocin [1]
  formation of high-molecular weight complexes: did not interfere
HeLa-Cx43 cells
  Podocin-dependent stimulation of Ca2+ influx: abolished
Podocin [2]
  Podocin in DRM fractions: loss of Podocin and MEC-2 from the DRM fractions
